Experimental findings from patent US8178577B2, “Tricyclic derivatives as potent and selective histone deacetylase inhibitors” (Shenzhen Chipscreen Biosciences Ltd., priority 2008, dated 2012) are described below.

The subject of one test is HL60. The experiment in a line: Cell proliferation (MTS), HL60. The test is classed as cell-based. To be noted: Homo sapiens, HL-60, 72 hours. The procedure:
(§1) Measurement of In Vivo Cell Proliferation:
(§2) Tumor cells were trypsinized and plated into 96-well plates at 3,000 per well and incubated in complete medium with 10% FBS for 24 hours. Compounds were added over a final concentration range of 100 μmol/L to 100 nmol/L in 0.1% DMSO and incubated for 72 hours in complete medium. The effects on proliferation were determined by addition of MTS reagent (Promega) according to the instruction, incubation for 2 hours at 37° C. in CO2 incubator, and record the absorbance at 490 nm using an ELISA plate reader.

Another test has as its target T1, HDAC7 (Homo sapiens, UniProt Q8WUI4).
T1 construct: endogenous in cells; host or cells: HeLa
T1 sequence (Q8WUI4 1-952): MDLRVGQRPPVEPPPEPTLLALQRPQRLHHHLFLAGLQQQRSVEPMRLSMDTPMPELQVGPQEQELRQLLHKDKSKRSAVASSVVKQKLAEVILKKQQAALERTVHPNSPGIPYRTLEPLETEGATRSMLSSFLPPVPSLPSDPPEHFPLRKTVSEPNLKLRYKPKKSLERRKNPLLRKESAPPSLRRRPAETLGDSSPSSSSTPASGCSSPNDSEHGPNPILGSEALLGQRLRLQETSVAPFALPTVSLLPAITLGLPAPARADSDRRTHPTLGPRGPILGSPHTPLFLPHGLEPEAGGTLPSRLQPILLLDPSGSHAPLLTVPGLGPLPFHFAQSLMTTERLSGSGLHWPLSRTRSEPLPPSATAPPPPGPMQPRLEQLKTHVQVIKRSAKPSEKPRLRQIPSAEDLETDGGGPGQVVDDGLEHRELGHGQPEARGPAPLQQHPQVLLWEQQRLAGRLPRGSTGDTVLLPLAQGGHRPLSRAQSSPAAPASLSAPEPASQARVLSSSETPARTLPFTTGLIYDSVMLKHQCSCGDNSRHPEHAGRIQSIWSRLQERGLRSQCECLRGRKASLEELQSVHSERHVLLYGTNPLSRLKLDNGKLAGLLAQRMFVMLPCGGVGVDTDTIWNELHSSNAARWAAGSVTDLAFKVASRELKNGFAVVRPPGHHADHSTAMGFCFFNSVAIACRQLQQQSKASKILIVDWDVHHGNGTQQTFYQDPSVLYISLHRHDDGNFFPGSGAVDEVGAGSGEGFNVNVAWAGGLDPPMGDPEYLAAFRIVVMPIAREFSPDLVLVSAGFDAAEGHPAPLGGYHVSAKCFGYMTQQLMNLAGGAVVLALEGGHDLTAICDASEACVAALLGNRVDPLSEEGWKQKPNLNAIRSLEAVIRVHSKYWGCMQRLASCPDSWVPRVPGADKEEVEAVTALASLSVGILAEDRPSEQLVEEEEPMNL
The experiment in a line: Nur77 reporter gene assay in HeLa cells. The note with it: HeLa, 24 h, read-out: % of SAHA Response for HDAC7 at 10 μM (Nur77 reporter gene). The test is classed as cell-based. The method, then:
(§3) HDAC subtype selectivity inhibition assay of tested compounds was carried out by several reporter gene assays experiments. Briefly, HeLa cells were seeded in 96-well plates the day before transfection to give a confluence of 50-80%. Cells were transfected with one of reporter gene plasmids containing a promoter sequences or response elements upstream of a luciferase gene construct using FuGene6 transfection reagent according to the manufacturer's instructions (Roche). The promoter or response elements including p21-promoter, gdf11-promoter, serum response element (SRE), MEF-binding element were fused upstream to the luciferase gene reporter construct. For normalizing the transfection efficiency, a GFP expression plasmid was cotransfected. Cells were allowed to express protein for 24 hours followed by addition of individual compounds or the vehicle (DMSO). 24 hours later the cells were harvested, and the luciferase assays were performed using the luciferase assay kit according to the manufacturer's instructions (Promega). To normalize the data from the luciferase assays, β-galactosidase activity from transfected cells was measured using a kit (Promega) as instructed by the manufacturer.

In a further test the test system is A549. As to the kind of experiment: Cell proliferation (MTS), A549. To be noted: Homo sapiens, 72 hours. The test is classed as cell-based. The procedure: as §1, §2
For a further test, the system named is total HDAC enzyme. The experiment in a line: In vitro inhibition of total HDAC enzyme activity (BIOMOL HDAC Fluorimetric Assay/Drug Discovery Kit, HeLa extract). It is filed as biochemical. The method, then:
Measurement of In Vitro Inhibition of Total HDAC Enzyme Activity:
The in vitro inhibition of total HDAC enzyme was determined by HDAC Fluorimetric Assay/Drug Discovery Kit (BIOMOL) according to manufacture's instruction. • 1. Add Assay buffer, diluted trichostatin A or test inhibitor to appropriate wells of the microtiter plate. Following table lists examples of various assay types and the additions required for each test.
• 2. Add diluted HeLa extract or other HDAC sample to all wells except those that are to be “No Enzyme Controls” (Blank). • 3. Allow diluted Fluor de LYS™ Substrate and the samples in the microtiter plate to equilibrate to assay temperature (25° C.). • 4. Initiate HDAC reactions by adding diluted substrate (25 μl) to each well and mixing thoroughly. • 5. Allow HDAC reactions to proceed for desired length of time and then stop them by addition of Fluor de Lys™ Developer (50 μl). Incubate plate at room temperature (25° C.) for 10-15 min. • 6. Read samples in a microtiter-plate reading fluorimeter capable of excitation at a wavelength in the range 350-380 nm and detection of emitted light in the range 440-460 nm. Measurement of In Vivo Inhibition of HDAC Subtype Activity: […]

The subject of a further test is HDAC Class I. The experiment in a line: P21 reporter gene assay in HeLa cells. The test is classed as cell-based. To be noted: relative to SAHA, 24 hours. The procedure:
as §3
(In general: Reporter assays use an easily measured gene product as a stand-in for the process of interest.)

The subject of the next test is HDAC4/5. As to the kind of experiment: MEF2 reporter gene assay in HeLa cells. The test is classed as cell-based. To be noted: relative to SAHA, 24 hours. The procedure:
as §3

Take `Nc1cc(F)ccc1NC(=O)CCCCCNC(=O)C=C1c2ccccc2-c2ccccc21` [Example 12, 6-(2-(9H-fluoren-9-ylidene)acetamido)-N-(2-amino-4-fluorophenyl)hexanamide]: the results for the GI50 in the test with HL60 and in the test on A549 were 2.29 µM and 18.2 µM, respectively. Besides, the activation at 10 µM on HDAC7 is 38%. For the same molecule, in the test on total HDAC enzyme, the “% of Inhibition on total HDAC enzyme at 30 μM” value is 50%. Moreover, in the test with HDAC Class I, the “% of SAHA Response for HDAC Class I at 10 μM (P21 reporter gene)” value is reported as 39%. Further, the “% of SAHA Response for HDAC4/5 at 10 μM (MEF2 reporter gene)” value with HDAC4/5 was 101%.
On to `Nc1ccccc1NC(=O)CCCCCNC(=O)C=C1c2ccccc2-c2ccccc21` [Example 13, 6-(2-(9H-fluoren-9-ylidene)acetamido)-N-(2-aminophenyl)hexanamide], for which the GI50 is 1.35 µM with HL60 and 4.9 µM in the test on A549. On HDAC7, the activation at 10 µM was found to be 66%. Also, the “% of Inhibition on total HDAC enzyme at 30 μM” value in the test with total HDAC enzyme is given as 50%. Further, the “% of SAHA Response for HDAC Class I at 10 μM (P21 reporter gene)” value with HDAC Class I amounted to 133%. In addition, the “% of SAHA Response for HDAC4/5 at 10 μM (MEF2 reporter gene)” value in the test on HDAC4/5 is listed as 118%.

A word on the GI50: it is the concentration giving 50% growth inhibition. Higher therefore signals less potent growth inhibition.
